# Results published in the supplement of paper PMC10307832.
# Experiments:
# Experiment in all cases: relative viability (nuclei count vs DMSO), 5 days (fraction); higher = more cells survive
# [1] = compound: NC1(c2ccc(-c3nc4ccn5c(=O)[nH]nc5c4cc3-c3ccccc3)cc2)CCC1 [MK-2206] + Cc1nc(NC(=O)N2CCC[C@H]2C(N)=O)sc1-c1ccnc(C(C)(C)C(F)(F)F)c1 [Alpelisib] (partner 2 µM)
# Procedure, shortened: (§1)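 Five library-drug doses in √10 steps were combined with a fixed anchor-drug dose, or a single drug was given alone, by pin tool to lung cancer cell lines in 1536-well plates the day after seeding. Nuclei were stained and counted after 5 days. Relative viability is the nuclei count in treated wells over that in vehicle wells, taken as the median of duplicate plates.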
# [2] = compound: CS(=O)(=O)N1CCN(Cc2cc3nc(-c4cccc5[nH]ncc45)nc(N4CCOCC4)c3s2)CC1 [Pictilisib] + O=C(CCCCCCC(=O)Nc1ccccc1)NO [Vorinostat] (partner 1 µM)
# Procedure, shortened: as §1
# [3] = compound: NC1(c2ccc(-c3nc4ccn5c(=O)[nH]nc5c4cc3-c3ccccc3)cc2)CCC1 [MK-2206] + CCNC(=O)c1noc(-c2cc(C(C)C)c(O)cc2O)c1-c1ccc(CN2CCOCC2)cc1 [Luminespib] (partner 0.01 µM)
# Procedure, shortened: as §1
# [4] = compound: CS(=O)(=O)N1CCN(Cc2cc3nc(-c4cccc5[nH]ncc45)nc(N4CCOCC4)c3s2)CC1 [Pictilisib] + Cc1cc(Nc2cc(N3CCN(C)CC3)nc(Sc3ccc(NC(=O)C4CC4)cc3)n2)n[nH]1 [Tozasertib] (partner 0.1 µM)
# Procedure, shortened: as §1
# [5] = compound: CS(=O)(=O)N1CCN(Cc2cc3nc(-c4cccc5[nH]ncc45)nc(N4CCOCC4)c3s2)CC1 [Pictilisib] + Cc1nc(Nc2ncc(C(=O)Nc3c(C)cccc3Cl)s2)cc(N2CCN(CCO)CC2)n1 [Dasatinib] (partner 0.075 µM)
# Procedure, shortened: as §1
Cell Line,relative viability ([1]; first compound 0.01 µM),relative viability ([1]; first compound 0.03162 µM),relative viability ([1]; first compound 0.3162 µM),relative viability ([1]; first compound 1 µM),relative viability ([2]; first compound 0.02 µM),relative viability ([2]; first compound 0.06325 µM),relative viability ([2]; first compound 0.6325 µM),relative viability ([2]; first compound 2 µM),relative viability ([3]; first compound 0.01 µM),relative viability ([3]; first compound 0.03162 µM),relative viability ([3]; first compound 0.3162 µM),relative viability ([3]; first compound 1 µM),relative viability ([4]; first compound 0.02 µM),relative viability ([4]; first compound 0.06325 µM),relative viability ([4]; first compound 0.6325 µM),relative viability ([4]; first compound 2 µM),relative viability ([5]; first compound 0.02 µM),relative viability ([5]; first compound 0.06325 µM),relative viability ([5]; first compound 0.6325 µM),relative viability ([5]; first compound 2 µM)
NCI-H441,0.697,0.742,0.453,0.661,0.972,0.682,0.607,0.457,0.31,0.409,0.271,0.262,0.654,0.542,0.527,0.289,0.639,0.528,0.352,0.256
NCI-H2170,0.82,0.835,0.755,0.776,0.856,0.822,0.611,0.304,0.697,0.822,0.616,0.557,0.875,0.823,0.61,0.391,0.544,0.754,0.522,0.343
PC-14,0.852,0.98,0.74,0.881,0.72,0.661,0.534,0.325,0.181,0.214,0.143,0.159,0.61,0.583,0.641,0.46,0.274,0.291,0.17,0.095
NCI-H2009,1.16,1.17,1.14,1.12,0.766,0.723,0.645,0.5,1.01,0.992,1.06,1.01,0.719,0.736,0.75,0.461,0.307,0.298,0.159,0.129
NCI-H1395,1.1,1.13,0.926,0.825,1.08,0.727,0.498,0.369,0.77,0.606,0.746,0.651,0.715,0.722,0.773,0.473,0.406,0.392,0.296,0.265
NCI-H1437,0.983,0.979,0.764,0.83,0.882,0.949,0.611,0.516,1.13,1.13,0.855,1.27,0.383,0.41,0.324,0.242,0.445,0.386,0.255,0.178
NCI-H647,1.39,1.24,1.07,0.851,0.532,0.795,0.515,0.276,0.0812,0.159,0.156,0.126,0.323,0.338,0.291,0.0558,0.195,0.172,0.108,0.0934
NCI-H1793,0.721,0.816,0.634,0.727,0.712,0.724,0.379,0.243,0.186,0.178,0.164,0.174,0.288,0.29,0.189,0.097,0.361,0.39,0.351,0.243
SK-MES-1,0.882,1.05,0.786,0.851,1.11,1.12,0.856,0.511,0.901,0.756,0.751,0.751,1,0.982,0.822,0.649,0.304,0.308,0.128,0.117
NCI-H2087,1.17,1.03,1.12,1.1,0.61,1.06,0.919,0.539,0.158,0.155,0.187,0.128,0.232,0.228,0.168,0.187,0.672,0.822,0.632,0.691
BEN,0.998,1.11,1.08,1.1,0.583,0.615,0.609,0.441,0.404,0.484,0.274,0.495,0.377,0.425,0.448,0.409,0.351,0.3,0.355,0.285
NCI-H3122,0.737,0.659,0.677,0.636,0.91,0.965,0.759,0.504,0.118,0.1,0.0816,0.084,0.323,0.311,0.321,0.142,0.876,0.926,0.54,0.179
LCLC-97TM1,0.316,0.261,0.185,0.204,0.712,0.658,0.619,0.212,0.873,0.775,0.618,0.616,0.251,0.211,0.0992,0.0885,0.8,0.919,0.781,0.602
NCI-H2228,0.625,0.621,0.288,0.262,0.524,0.72,0.434,0.253,0.167,0.188,0.14,0.145,0.272,0.211,0.169,0.0908,0.654,0.433,0.317,0.167
COR-L23,0.82,0.904,0.681,0.686,0.491,0.407,0.386,0.286,0.713,0.695,0.581,0.529,0.245,0.185,0.139,0.136,0.445,0.481,0.384,0.295
